In US20250171430A1, “PYRAZOLYL COMPOUNDS AS KV7 CHANNEL ACTIVATORS” (Biohaven Therapeutics Ltd., priority 2022, published 2025):

These compounds were tested against T1, Kv7.2/7.3 (Homo sapiens, UniProt O43525+O43526) (assay: Kv7.2/7.3 Activation Assay (Thallium Flux Assay)). Conditions: hKV7.2/7.3 cell line; test compound at single concentration of 10 μM; fluorescence at 90 sec normalized to positive control (retigabine, 30 μM).
T1 construct: Kv7.2 tetracycline-induced, Kv7.3 constitutive
Format: cell-based
Method in brief: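 Human Kv7.2/7.3 cells with Kv7.2 induced overnight by 10 ng/mL tetracycline were loaded with FluxOR II Green for 1 h at 37 °C. Compounds were tested at 10 μM in 0.1% DMSO/extracellular solution, pH 7.4. Thallium/potassium stimulus was added after a 15 s baseline, and 90 s fluorescence (ex 475/em 530 nm) was normalized to 30 μM retigabine.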

| Compound | Kv7.2/7.3 Activity |
| --- | --- |
| CC(C)c1c(NC(=O)CC(C)(C)C)nn(C)c1-c1ccc(OC(F)(F)F)cc1 [Compound 23, N-(4-isopropyl-1-methyl-5-(4-(trifluoromethoxy)phenyl)-1H-pyrazol-3-yl)-3,3-dimethylbutanamide] | ++ (“++” High Activity ≥ 0.7) |
| Cn1nc(NC(=O)C2(C)CC(F)(F)C2)c(C2CCC2)c1-c1ccc(OC(F)(F)F)cc1 [Compound 200, N-(4-cyclobutyl-1-methyl-5-(4-(trifluoromethoxy)phenyl)-1H-pyrazol-3-yl)-3,3-difluoro-1-methylcyclobutane-1-carboxamide] | + (“+” Moderate Activity 0.15-0.7) |
| Cn1nc(NC(=O)C2(C)CC2)c(C2CCC2)c1-c1ccc(F)cc1 [Compound 146, N-(4-cyclobutyl-5-(4-fluorophenyl)-1-methyl-1H-pyrazol-3-yl)-1-methylcyclopropane-1-carboxamide] | + (“+” Moderate Activity 0.15-0.7) |
| Cn1nc(NC(=O)CC2(C(F)(F)F)CC2)c(C2CCC2)c1Cc1ccccc1 [Compound 17, N-(5-benzyl-4-cyclobutyl-1-methyl-1H-pyrazol-3-yl)-2-(1-(trifluoromethyl)cyclopropyl)acetamide] | ++ (“++” High Activity ≥ 0.7) |
| Cn1nc(NC(=O)[C@H]2C[C@@H](C(F)(F)F)C2)c(C2CCC2)c1-c1ccc(F)cc1 [Compound 118, (1S,3S)-N-(4-cyclobutyl-5-(4-fluorophenyl)-1-methyl-1H-pyrazol-3-yl)-3-(trifluoromethyl)cyclobutane-1-carboxamide] | ++ (“++” High Activity ≥ 0.7) |
| Cn1nc(NC(=O)C[C@H]2CC(F)(F)C2(F)F)c(CC(F)(F)F)c1-c1ccccc1 [Compound 38, (S)-N-(1-methyl-5-phenyl-4-(2,2,2-trifluoroethyl)-1H-pyrazol-3-yl)-2-(2,2,3,3-tetrafluorocyclobutyl)acetamide] | ++ (“++” High Activity ≥ 0.7) |
| Cn1nc(NC(=O)[C@H]2C[C@H](C)C2)c(C2CCC2)c1-c1ccc(OC(F)(F)F)cc1 [Compound 184, (1r,3r)-N-(4-cyclobutyl-1-methyl-5-(4-(trifluoromethoxy)phenyl)-1H-pyrazol-3-yl)-3-methylcyclobutane-1-carboxamide] | ++ (“++” High Activity ≥ 0.7) |
| Cn1nc(NC(=O)C2CC(F)(F)C2)c(C2CCC2)c1-c1ccc(Cl)cc1 [Compound 220, N-(5-(4-chlorophenyl)-4-cyclobutyl-1-methyl-1H-pyrazol-3-yl)-3,3-difluorocyclobutane-1-carboxamide] | ++ (“++” High Activity ≥ 0.7) |
| Cn1nc(NC(=O)N[C@H]2CCC(F)(F)C2)c(C2CCC2)c1-c1ccc(F)cc1 [Compound 237, (S)-1-(4-cyclobutyl-5-(4-fluorophenyl)-1-methyl-1H-pyrazol-3-yl)-3-(3,3-difluorocyclopentyl)urea] | + (“+” Moderate Activity 0.15-0.7) |
| Cn1nc(NC(=O)Cc2ccc(F)c(F)c2)c(C2CCC2)c1-c1ccc(OC(F)(F)F)cc1 [Compound 92, N-(4-cyclobutyl-1-methyl-5-(4-(trifluoromethoxy)phenyl)-1H-pyrazol-3-yl)-2-(3,4-difluorophenyl)acetamide] | ++ (“++” High Activity ≥ 0.7) |
| C[C@@H](C(=O)Nc1nn(C)c(-c2ccc(F)cc2)c1C1CCC1)C1(C(F)(F)F)CC1 [Compound 128, (R)-N-(4-cyclobutyl-5-(4-fluorophenyl)-1-methyl-1H-pyrazol-3-yl)-2-(1-(trifluoromethyl)cyclopropyl)propanamide] | ++ (“++” High Activity ≥ 0.7) |
| Cn1nc(NC(=O)CCC(F)(F)C(F)(F)F)c(C2CCC2)c1-c1ccc(F)cc1 [Compound 101, N-(4-cyclobutyl-5-(4-fluorophenyl)-1-methyl-1H-pyrazol-3-yl)-4,4,5,5,5-pentafluoropentanamide] | ++ (“++” High Activity ≥ 0.7) |
| Cn1nc(NC(=O)C2CC(C(F)(F)F)C2)c(C2CCC2)c1-c1ccc(OC(F)(F)F)cc1 (centres unmarked) [Compound 191, N-(4-cyclobutyl-1-methyl-5-(4-(trifluoromethoxy)phenyl)-1H-pyrazol-3-yl)-3-(trifluoromethyl)cyclobutane-1-carboxamide] | ++ (“++” High Activity ≥ 0.7) |
| Cn1nc(NC(=O)C[C@@H]2CC(F)(F)C2(F)F)c(C2CCC2)c1-c1cccc(C(C)(C)O)c1 [Compound 47, (R)-N-(4-cyclobutyl-5-(3-(2-hydroxypropan-2-yl)phenyl)-1-methyl-1H-pyrazol-3-yl)-2-(2,2,3,3-tetrafluorocyclobutyl)acetamide] | + (“+” Moderate Activity 0.15-0.7) |
| Cn1nc(NC(=O)NC2CC(F)(F)C2)c(C2CCC2)c1-c1ccc(Cl)s1 [Compound 211, 1-(5-(5-chlorothiophen-2-yl)-4-cyclobutyl-1-methyl-1H-pyrazol-3-yl)-3-(3,3-difluorocyclobutyl)urea] | ++ (“++” High Activity ≥ 0.7) |
| Cn1nc(NC(=O)CC2CC(F)(F)C2)c(C2CCC2)c1-c1ccc(Cl)cc1 [Compound 222, N-(5-(4-chlorophenyl)-4-cyclobutyl-1-methyl-1H-pyrazol-3-yl)-2-(3,3-difluorocyclobutyl)acetamide] | ++ (“++” High Activity ≥ 0.7) |
| Cn1nc(NC(=O)CC2CC(F)(F)C2)c(C2CCC2)c1-c1ccc(Cl)c(F)c1 [Compound 250, N-(5-(4-chloro-3-fluorophenyl)-4-cyclobutyl-1-methyl-1H-pyrazol-3-yl)-2-(3,3-difluorocyclobutyl)acetamide] | ++ (“++” High Activity ≥ 0.7) |
| Cn1nc(NC(=O)C2CC3(C2)CC(F)(F)C3)c(C2CCC2)c1-c1ccc(F)cc1 [Compound 204, N-(4-cyclobutyl-5-(4-fluorophenyl)-1-methyl-1H-pyrazol-3-yl)-6,6-difluorospiro[3.3]heptane-2-carboxamide] | ++ (“++” High Activity ≥ 0.7) |
| Cn1nc(NC(=O)CC2(C(F)(F)F)CC2)c(C2CCC2)c1CC1CC1 [Compound 79, N-(4-cyclobutyl-5-(cyclopropylmethyl)-1-methyl-1H-pyrazol-3-yl)-2-(1-(trifluoromethyl)cyclopropyl)acetamide] | ++ (“++” High Activity ≥ 0.7) |
| Cn1nc(NC(=O)C[C@H]2CC2(F)F)c(C2CCC2)c1-c1ccc(F)cc1 [Compound 99, (S)-N-(4-cyclobutyl-5-(4-fluorophenyl)-1-methyl-1H-pyrazol-3-yl)-2-(2,2-difluorocyclopropyl)acetamide] | ++ (“++” High Activity ≥ 0.7) |
| Cn1nc(NC(=O)C[C@@H]2CC(F)(F)C2(F)F)c(C2CCC2)c1-c1ccc(F)cc1 [Compound 14, (R)-N-(4-cyclobutyl-5-(4-fluorophenyl)-1-methyl-1H-pyrazol-3-yl)-2-(2,2,3,3-tetrafluorocyclobutyl)acetamide] | ++ (“++” High Activity ≥ 0.7) |
| Cn1nc(NC(=O)[C@H]2C[C@@H](C)C2)c(C2CCC2)c1-c1ccc(OC(F)(F)F)cc1 [Compound 183, (1s,3s)-N-(4-cyclobutyl-1-methyl-5-(4-(trifluoromethoxy)phenyl)-1H-pyrazol-3-yl)-3-methylcyclobutane-1-carboxamide] | ++ (“++” High Activity ≥ 0.7) |
| Cn1nc(NC(=O)NC2(C)COC2)c(C2CCC2)c1-c1ccc(F)cc1 [Compound 252, 1-(4-cyclobutyl-5-(4-fluorophenyl)-1-methyl-1H-pyrazol-3-yl)-3-(3-methyloxetan-3-yl)urea] | + (“+” Moderate Activity 0.15-0.7) |
| Cn1nc(NC(=O)[C@H]2C[C@H](C(F)(F)F)C2)c(C2CCC2)c1-c1ccc(F)cc1 [Compound 119, (1R,3R)-N-(4-cyclobutyl-5-(4-fluorophenyl)-1-methyl-1H-pyrazol-3-yl)-3-(trifluoromethyl)cyclobutane-1-carboxamide] | ++ (“++” High Activity ≥ 0.7) |
| Cn1nc(NC(=O)C2(C)CC(F)(F)C2)c(C2CCC2)c1-c1ccc(Cl)s1 [Compound 210, N-(5-(5-chlorothiophen-2-yl)-4-cyclobutyl-1-methyl-1H-pyrazol-3-yl)-3,3-difluoro-1-methylcyclobutane-1-carboxamide] | ++ (“++” High Activity ≥ 0.7) |
| Cn1nc(NC(=O)C2COC2)c(C2CCC2)c1-c1ccc(Cl)s1 [Compound 276, N-(5-(5-chlorothiophen-2-yl)-4-cyclobutyl-1-methyl-1H-pyrazol-3-yl)oxetane-3-carboxamide] | + (“+” Moderate Activity 0.15-0.7) |
| Cn1nc(NC(=O)C[C@H]2CC(F)(F)C2(F)F)c(C2CCC2)c1C1CCCCC1 [Compound 67, (S)-N-(4-cyclobutyl-5-cyclohexyl-1-methyl-1H-pyrazol-3-yl)-2-(2,2,3,3-tetrafluorocyclobutyl)acetamide] | + (“+” Moderate Activity 0.15-0.7) |
| Cn1nc(NC(=O)C[C@H]2CC(F)(F)C2(F)F)c(C2CCC2)c1CCc1ccccc1 [Compound 62, (S)-N-(4-cyclobutyl-1-methyl-5-phenethyl-1H-pyrazol-3-yl)-2-(2,2,3,3-tetrafluorocyclobutyl)acetamide] | ++ (“++” High Activity ≥ 0.7) |
| Cn1nc(NC(=O)Cc2ccc(F)c(F)c2)c(C2CCC2)c1C1(C(F)(F)F)CCC1 [Compound 90, N-(4-cyclobutyl-1-methyl-5-(1-(trifluoromethyl)cyclobutyl)-1H-pyrazol-3-yl)-2-(3,4-difluorophenyl)acetamide] | + (“+” Moderate Activity 0.15-0.7) |
